According to ChEMBL document CHEMBL1201862, “PubChem BioAssay data set” (2004):
Active and inactive are the calls of the source.

Columns and labels:
Bcl-2-like protein 10 = molecular target: T1, Bcl-2-like protein 10 (Homo sapiens, UniProt Q9HD36); test: Bcl-B/TR3 peptide binding disruption – biochemical, fluorescence polarization, FITC-TR3 peptide, selectivity assay for Bfl-1 inhibitor project, primary screen (AID 748);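 note: fluorescence polarization from a fluorescein-labelled TR3 peptide binding purified Bcl-B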
T1 sequence (Q9HD36 whole entry): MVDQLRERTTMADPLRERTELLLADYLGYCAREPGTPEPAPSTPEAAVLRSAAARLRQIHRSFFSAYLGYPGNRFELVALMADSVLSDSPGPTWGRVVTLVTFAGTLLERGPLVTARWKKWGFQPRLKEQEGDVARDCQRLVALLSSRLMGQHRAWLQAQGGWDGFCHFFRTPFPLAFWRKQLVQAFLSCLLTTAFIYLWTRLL

Large T antigen = Large T antigen (Simian virus 40, UniProt P03070); assay type: functional, Betapolyomavirus macacae;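 note: Confirmatory-stage PubChem screen for compounds that inhibit SV40 T antigen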
Chain of Large T antigen (P03070 whole entry): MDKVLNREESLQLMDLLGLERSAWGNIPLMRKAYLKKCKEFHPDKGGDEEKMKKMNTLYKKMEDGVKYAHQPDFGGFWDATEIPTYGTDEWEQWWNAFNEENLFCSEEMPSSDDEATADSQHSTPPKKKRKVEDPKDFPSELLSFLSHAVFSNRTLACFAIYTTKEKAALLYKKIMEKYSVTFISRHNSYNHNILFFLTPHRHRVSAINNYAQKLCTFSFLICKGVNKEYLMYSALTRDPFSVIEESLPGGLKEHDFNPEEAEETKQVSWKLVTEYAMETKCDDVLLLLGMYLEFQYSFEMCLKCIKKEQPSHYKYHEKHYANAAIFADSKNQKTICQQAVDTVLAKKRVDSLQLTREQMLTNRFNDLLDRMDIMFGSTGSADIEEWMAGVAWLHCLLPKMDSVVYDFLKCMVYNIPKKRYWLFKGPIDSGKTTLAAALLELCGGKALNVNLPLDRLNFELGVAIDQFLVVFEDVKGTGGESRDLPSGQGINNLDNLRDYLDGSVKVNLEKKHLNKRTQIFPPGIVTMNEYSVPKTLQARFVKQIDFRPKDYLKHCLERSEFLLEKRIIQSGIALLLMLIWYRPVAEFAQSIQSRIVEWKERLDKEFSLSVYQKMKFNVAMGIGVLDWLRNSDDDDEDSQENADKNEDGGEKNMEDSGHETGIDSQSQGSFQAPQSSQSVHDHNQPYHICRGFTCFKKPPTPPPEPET

Genome polyprotein = Genome polyprotein (dengue virus type 2, UniProt P29990); test: flavivirus cap methylation enzyme inhibition – biochemical, confirmation dose response, primary screen (AID 588689); assay type: functional
Chain of Genome polyprotein (P29990 2492-3391 limits assumed): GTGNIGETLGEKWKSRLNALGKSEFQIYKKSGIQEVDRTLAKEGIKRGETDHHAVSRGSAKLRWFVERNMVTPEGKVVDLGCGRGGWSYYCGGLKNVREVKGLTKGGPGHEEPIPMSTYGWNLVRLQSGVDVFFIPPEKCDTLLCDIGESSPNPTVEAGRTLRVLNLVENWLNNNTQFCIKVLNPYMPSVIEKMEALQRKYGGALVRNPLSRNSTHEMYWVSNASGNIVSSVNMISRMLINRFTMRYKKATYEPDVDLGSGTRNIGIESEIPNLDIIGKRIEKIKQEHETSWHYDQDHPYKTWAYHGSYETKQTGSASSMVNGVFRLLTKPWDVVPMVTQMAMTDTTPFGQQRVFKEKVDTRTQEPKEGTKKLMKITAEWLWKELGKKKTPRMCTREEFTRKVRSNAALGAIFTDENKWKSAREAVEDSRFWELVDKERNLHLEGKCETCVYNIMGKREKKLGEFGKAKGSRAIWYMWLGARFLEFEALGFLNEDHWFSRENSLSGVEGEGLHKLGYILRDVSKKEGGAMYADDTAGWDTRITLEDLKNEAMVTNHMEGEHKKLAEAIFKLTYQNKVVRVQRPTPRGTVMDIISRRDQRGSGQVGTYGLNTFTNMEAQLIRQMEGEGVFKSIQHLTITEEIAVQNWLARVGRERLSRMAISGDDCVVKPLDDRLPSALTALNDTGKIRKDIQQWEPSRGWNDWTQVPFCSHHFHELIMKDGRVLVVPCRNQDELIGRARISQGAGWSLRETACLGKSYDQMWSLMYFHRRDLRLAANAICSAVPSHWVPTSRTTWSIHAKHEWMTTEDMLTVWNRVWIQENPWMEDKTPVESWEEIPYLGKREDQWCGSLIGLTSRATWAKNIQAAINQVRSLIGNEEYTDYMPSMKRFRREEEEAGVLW

[1] = molecular target: T2, Carboxy-terminal domain RNA polymerase II polypeptide A small phosphatase 1 (Homo sapiens, UniProt Q9GZU7); test: CTDSP1 inhibitors, concentration-response, biochemical, absorbance readout, ultra-high-throughput screen actives (AID 540297); assay type: functional
T2 sequence (Q9GZU7 whole entry): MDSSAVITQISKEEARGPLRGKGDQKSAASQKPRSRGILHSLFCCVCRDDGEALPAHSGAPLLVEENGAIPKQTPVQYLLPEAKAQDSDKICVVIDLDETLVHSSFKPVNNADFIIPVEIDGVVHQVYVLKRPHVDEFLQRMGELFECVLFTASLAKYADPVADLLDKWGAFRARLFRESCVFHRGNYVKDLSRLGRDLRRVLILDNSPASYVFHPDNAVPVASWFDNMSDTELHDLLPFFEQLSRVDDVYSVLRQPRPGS

Beta-galactosidase = Beta-galactosidase (Escherichia coli, UniProt Q8VNN2); test: detection-enzyme interference by beta-gal modulators – biochemical, E. coli enzyme, set 3, artefact control for CCR6 antagonist project, dose response (AID 504712); assay type: functional
Chain of Beta-galactosidase (Q8VNN2 whole entry): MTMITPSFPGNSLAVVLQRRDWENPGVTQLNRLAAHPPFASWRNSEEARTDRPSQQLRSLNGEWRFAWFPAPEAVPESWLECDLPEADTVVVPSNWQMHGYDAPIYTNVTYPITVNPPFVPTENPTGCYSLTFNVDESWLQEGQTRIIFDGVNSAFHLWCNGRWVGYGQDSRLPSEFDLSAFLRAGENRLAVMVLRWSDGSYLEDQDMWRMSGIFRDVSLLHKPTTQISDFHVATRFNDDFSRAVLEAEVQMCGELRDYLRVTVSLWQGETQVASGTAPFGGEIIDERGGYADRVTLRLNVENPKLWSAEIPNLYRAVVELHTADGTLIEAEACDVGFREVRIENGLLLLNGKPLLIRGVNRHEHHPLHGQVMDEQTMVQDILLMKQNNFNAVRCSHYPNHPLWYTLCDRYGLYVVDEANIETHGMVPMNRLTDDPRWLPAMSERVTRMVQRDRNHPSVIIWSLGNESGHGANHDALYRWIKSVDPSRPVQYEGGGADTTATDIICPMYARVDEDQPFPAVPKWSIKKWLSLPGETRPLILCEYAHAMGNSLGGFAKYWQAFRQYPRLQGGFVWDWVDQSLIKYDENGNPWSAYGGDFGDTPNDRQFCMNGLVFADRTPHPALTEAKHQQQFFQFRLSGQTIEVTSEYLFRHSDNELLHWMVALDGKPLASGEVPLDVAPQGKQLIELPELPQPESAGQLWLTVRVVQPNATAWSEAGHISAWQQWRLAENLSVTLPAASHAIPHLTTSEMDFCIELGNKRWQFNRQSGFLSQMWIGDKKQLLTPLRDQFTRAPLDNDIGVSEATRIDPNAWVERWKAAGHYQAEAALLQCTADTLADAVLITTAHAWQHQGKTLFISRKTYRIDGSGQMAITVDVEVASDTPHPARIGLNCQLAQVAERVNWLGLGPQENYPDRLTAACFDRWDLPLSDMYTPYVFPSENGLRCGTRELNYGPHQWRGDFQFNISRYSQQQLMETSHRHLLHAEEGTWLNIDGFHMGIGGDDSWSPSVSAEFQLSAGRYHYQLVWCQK

[2] = MIN6 cell viability loss – mouse insulinoma, cytotoxicity control, dose response (AID 2122); assay type: functional;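 note: confirmatory high-throughput counterscreen run to flag cytotoxic compounds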
[3] = Trypanosoma cruzi growth suppression in host cells – NIH3T3 host cells, beta-gal luminescence, confirmation (AID 2044); assay type: functional, cell-based;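 note: intracellular parasites grown in NIH/3T3 mouse fibroblasts as host cells; luminescent beta-galactosidase reporter signal from transgenic T. cruzi replicating inside host cells; inhibitors lower the luminescence signal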
[4] = decrease of insulin promoter-GFP reporter – imaging, high-content screening, mouse beta cells (AID 1628); assay type: functional; details: MIN6
[5] = NIH3T3 cell viability loss – ATP luminescence, mouse fibroblasts, counter-screen, dose response (AID 2010); assay type: functional, cell-based;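 note: cells exposed to compound for about 90 hours before reading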
[6] = THP-1 cell cytotoxicity, dose response, cytotoxicity control for non-replicating M. tuberculosis project (AID 489025); assay type: functional
[7] = HepG2 cell cytotoxicity, dose response, cytotoxicity control for non-replicating M. tuberculosis project (AID 489018); assay type: functional; details: Mycobacterium tuberculosis
[8] = molecular target: T3, RNA-binding protein pos-1 (Caenorhabditis elegans, UniProt G5EF15); test: disruptors of C. elegans POS-1 RNA interaction – biochemical, fluorescence polarization, dose response (AID 1964);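 note: purified POS-1 fused to maltose binding protein made in E. coli; potency of compounds blocking POS-1 binding to fluorescent RNA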
T3 sequence (G5EF15 whole entry): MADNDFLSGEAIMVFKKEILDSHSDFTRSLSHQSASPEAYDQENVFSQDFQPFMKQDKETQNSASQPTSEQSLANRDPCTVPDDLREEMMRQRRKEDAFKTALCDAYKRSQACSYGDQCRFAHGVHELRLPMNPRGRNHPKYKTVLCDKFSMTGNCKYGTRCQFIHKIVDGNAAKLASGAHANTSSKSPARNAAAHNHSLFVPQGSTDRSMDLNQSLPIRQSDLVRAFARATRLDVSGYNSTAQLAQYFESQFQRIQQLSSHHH

[9] = molecular target: T4, Zinc finger protein mex-5 (Caenorhabditis elegans, UniProt Q9XUB2); test: potency of MEX-5 RNA-binding blockers – biochemical, C. elegans, fluorescence polarization, dose response (AID 1960)
T4 sequence (Q9XUB2 whole entry): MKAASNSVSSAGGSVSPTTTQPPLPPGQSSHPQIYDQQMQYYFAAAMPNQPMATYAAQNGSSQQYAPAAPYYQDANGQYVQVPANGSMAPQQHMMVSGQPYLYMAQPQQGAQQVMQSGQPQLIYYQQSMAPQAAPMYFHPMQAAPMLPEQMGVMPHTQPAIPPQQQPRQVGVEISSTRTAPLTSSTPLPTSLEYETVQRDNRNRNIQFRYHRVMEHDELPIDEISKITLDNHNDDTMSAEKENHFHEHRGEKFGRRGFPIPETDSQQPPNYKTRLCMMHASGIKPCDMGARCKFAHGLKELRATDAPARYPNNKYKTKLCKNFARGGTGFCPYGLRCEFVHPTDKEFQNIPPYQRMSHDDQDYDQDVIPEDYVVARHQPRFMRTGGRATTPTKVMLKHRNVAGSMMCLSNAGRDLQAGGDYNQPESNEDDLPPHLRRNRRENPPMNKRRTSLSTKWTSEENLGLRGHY

[10] = Vero E6 cell cytotoxicity, dose response, cytotoxicity control for non-replicating M. tuberculosis project, secondary assay (AID 492998); assay type: functional, VeroE6; details: Vero C1008
cells = assay type: functional
X-box-binding protein 1 = molecular target: T5, X-box-binding protein 1 (Homo sapiens, UniProt P17861); assay type: functional, Cricetulus griseus;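 note: confirmatory dose-response counter-screen serving a CHOP assay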
T5 sequence (P17861 whole entry): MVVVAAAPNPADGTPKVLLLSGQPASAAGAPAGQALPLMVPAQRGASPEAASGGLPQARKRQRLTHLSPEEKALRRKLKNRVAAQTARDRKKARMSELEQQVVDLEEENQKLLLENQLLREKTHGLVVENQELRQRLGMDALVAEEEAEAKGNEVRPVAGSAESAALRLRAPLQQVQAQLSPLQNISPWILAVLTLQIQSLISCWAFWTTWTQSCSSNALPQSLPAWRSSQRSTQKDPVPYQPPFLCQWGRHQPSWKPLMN

[11] = molecular target: T6, Ubiquitin-conjugating enzyme E2 N (Homo sapiens, UniProt P61088); assay type: functional;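 note: Dose-response confirmation in a TR-FRET assay detecting UBC13-driven polyubiquitin chain formation, inhibition measured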
T6 sequence (P61088 whole entry): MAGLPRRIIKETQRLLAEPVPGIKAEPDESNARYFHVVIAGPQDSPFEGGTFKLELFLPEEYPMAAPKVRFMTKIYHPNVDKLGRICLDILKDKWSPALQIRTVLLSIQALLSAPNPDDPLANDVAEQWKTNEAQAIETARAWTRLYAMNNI

[12] = microbe, parasite or virus in culture; assay type: functional; details: Mycobacterium tuberculosis
Escherichia coli = test: microbe, parasite or virus in culture
[13] = molecular target: T7, Short transient receptor potential channel 4 (Mus musculus, UniProt Q9QUQ5); test: calcium entry via TRPC4 opening agents – cell-based, HEK293 TRPC4/mu-opioid, Fluo-4 calcium, dose response (AID 434937); assay type: functional
T7 sequence (Q9QUQ5 whole entry): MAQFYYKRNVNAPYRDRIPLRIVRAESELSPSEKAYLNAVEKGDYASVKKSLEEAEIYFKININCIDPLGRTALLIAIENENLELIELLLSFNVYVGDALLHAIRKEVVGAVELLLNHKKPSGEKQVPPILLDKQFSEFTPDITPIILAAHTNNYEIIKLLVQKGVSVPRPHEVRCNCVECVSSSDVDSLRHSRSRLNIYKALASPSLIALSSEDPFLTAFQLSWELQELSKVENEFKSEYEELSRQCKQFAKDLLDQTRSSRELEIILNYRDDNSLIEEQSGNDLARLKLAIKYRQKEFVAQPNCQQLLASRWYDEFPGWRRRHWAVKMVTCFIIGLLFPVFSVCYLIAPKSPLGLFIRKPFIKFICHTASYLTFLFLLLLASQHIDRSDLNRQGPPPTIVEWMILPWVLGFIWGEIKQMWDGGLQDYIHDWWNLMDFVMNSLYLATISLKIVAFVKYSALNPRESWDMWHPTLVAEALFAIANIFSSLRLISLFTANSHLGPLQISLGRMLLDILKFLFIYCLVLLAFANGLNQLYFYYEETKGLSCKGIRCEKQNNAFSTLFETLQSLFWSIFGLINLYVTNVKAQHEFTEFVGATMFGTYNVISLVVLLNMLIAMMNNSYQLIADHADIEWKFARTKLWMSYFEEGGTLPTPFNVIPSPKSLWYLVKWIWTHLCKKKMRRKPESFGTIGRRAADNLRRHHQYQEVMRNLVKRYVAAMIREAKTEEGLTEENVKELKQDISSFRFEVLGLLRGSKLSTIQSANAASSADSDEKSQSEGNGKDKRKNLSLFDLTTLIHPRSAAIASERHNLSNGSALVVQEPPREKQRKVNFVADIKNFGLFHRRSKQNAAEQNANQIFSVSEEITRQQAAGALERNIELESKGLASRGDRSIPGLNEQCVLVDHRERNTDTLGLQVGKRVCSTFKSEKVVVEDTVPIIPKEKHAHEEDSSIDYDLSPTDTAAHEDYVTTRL

[14] = molecular target: T7, Short transient receptor potential channel 4; test: block of DAMGO-driven TRPC4 calcium entry – cell-based, HEK293 TRPC4/mu-opioid, Fluo-4 calcium, dose response (AID 434942); assay type: functional;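 note: potency of inhibitors blocking the TRPC4 calcium response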
[15] = molecular target: Glucose-6-phosphate 1-dehydrogenase (Homo sapiens, UniProt P11413); test: inhibition of Homo sapiens G6PD, dose series – biochemical, fluorescence, selectivity assay for P. falciparum G6PD inhibitor project, dose response (AID 504792); assay type: functional
Chain of Glucose-6-phosphate 1-dehydrogenase (P11413 whole entry): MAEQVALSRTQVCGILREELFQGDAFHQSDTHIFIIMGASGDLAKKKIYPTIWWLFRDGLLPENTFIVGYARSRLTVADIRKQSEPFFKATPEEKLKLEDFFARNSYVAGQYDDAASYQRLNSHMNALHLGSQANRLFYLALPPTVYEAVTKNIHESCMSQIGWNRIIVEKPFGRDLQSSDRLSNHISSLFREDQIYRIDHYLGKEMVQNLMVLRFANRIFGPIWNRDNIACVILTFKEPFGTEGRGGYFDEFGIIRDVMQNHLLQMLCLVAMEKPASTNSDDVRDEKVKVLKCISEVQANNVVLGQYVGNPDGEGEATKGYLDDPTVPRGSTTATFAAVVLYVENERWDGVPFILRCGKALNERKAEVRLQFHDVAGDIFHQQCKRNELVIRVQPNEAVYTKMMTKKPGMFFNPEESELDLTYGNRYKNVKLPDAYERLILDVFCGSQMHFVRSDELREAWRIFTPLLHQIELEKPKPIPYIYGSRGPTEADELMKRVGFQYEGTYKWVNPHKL

Protein skinhead-1 = molecular target: T8, Protein skinhead-1 (Caenorhabditis elegans, UniProt P34707); assay type: functional
T8 sequence (P34707 whole entry): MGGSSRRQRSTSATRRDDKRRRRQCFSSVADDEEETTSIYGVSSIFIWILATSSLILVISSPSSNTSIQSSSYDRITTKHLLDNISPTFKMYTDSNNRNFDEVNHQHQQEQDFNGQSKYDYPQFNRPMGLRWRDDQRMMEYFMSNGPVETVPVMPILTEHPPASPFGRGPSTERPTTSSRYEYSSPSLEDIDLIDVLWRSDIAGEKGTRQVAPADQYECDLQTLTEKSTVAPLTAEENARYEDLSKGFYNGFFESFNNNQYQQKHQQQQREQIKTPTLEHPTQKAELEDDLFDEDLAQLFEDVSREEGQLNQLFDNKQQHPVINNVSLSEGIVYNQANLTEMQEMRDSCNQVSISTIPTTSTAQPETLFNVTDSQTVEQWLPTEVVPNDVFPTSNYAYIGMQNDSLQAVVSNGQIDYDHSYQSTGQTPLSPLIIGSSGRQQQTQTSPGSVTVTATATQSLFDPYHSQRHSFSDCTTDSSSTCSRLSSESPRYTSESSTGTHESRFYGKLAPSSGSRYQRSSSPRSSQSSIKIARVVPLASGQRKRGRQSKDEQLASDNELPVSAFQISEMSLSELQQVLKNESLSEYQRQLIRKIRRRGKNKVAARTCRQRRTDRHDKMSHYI

[16] = NIH-3T3 fibroblast cytotoxicity, dose response, cytotoxicity control, cell-based, fluorescence, Alamar Blue, secondary assay (AID 2327); assay type: functional;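 note: NIH-3T3 mouse fibroblasts cultured with fluconazole at 8 µg/mL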
[17] = fluconazole-exposed Candida albicans growth modulators – fluorescence, retest, confirmation (AID 2467); assay type: functional, cell-based

## O=c1c2cc(N3CCOCC3)ccc2[nH]c(=S)n1CCCN1CCCCCC1
Bcl-2-like protein 10
  IC50: 88 µM (inactive)

## Nc1ccc(OCC(O)C[n+]2ccc(CCS(=O)(=O)[O-])cc2)cc1 (stereo unspecified)
Large T antigen
  IC50: 17.9 µM (active)

## O=C(CN1C(=O)/C(=C2/SC(=S)N(CCS(=O)(=O)O)C2=O)c2ccccc21)Nc1cccc(C(F)(F)F)c1
Genome polyprotein
  IC50: 35.3 µM (active)
[1]
  IC50: 2.41 µM (active)
Beta-galactosidase
  IC50: > 66.6 µM (inactive)

## COc1cccc(CNC(=O)CN2CCC(c3nc4cc(C)ccc4[nH]3)CC2)c1
[2]
  IC50: 15 µM (inactive)
[3]
  EC50: 0.217 µM (active)
[4]
  IC50: 2 µM (active)
[5]
  EC50: > 60 µM (not active)

## C=CCn1c(SCc2cc(=O)n3ccsc3n2)nnc1C1CCCCC1
Bcl-2-like protein 10
  IC50: 61.5 µM (inactive)

## Cc1cnc(C(=O)NNC(=O)c2ccc(Br)cc2)cn1
[6]
  CC50: 26.3 µM (active)
[7]
  CC50: > 20 µM (active)
[8]
  EC50: > 300 µM (not active)
[9]
  EC50: 9.68 µM (active)
[10]
  CC50: 14.6 µM (active)
cells
  IC50: 23.2 µM (active)

## CC1=CC(C)(C)N(C(=O)c2ccc(F)cc2)c2cc3c(cc21)OCO3
X-box-binding protein 1
  Absolute IC50 (XBP1): 10 µM

## COC(=O)c1c(N=C(S)NN2CCN(C)CC2)sc2c1CCC(C)C2 (stereo unspecified)
[2]
  IC50: 3.07 µM (active)
[11]
  IC50: > 20 µM (inactive)
[4]
  IC50: 4.04 µM (active)
[12]
  CC50: 11.6 µM (active)

## COc1ccc(Nc2nc(NCCO)nc(OC)n2)cc1
Escherichia coli
  AC50: 25.5 µM (active)

## CCCN1CCN(C(=O)Cn2c(=O)oc3cc(S(=O)(=O)NCc4ccccc4)ccc32)CC1
[13]
  EC50: 4.22 µM (active)

## CN(C)C(CNC(=O)c1ccc2c(c1)S(=O)(=O)c1ccccc1C2=O)c1ccco1 (stereo unspecified)
[14]
  EC50: 4.73 µM (active)
[13]
  EC50: 0.668 µM (active)

## CCOC(=O)CSc1nnc(NC(=O)c2cccc([N+](=O)[O-])c2)s1
[15]
  IC50: 43.8 µM (inactive)

## CCN(CC)Cc1ccc(NC(=O)c2sc3cc(Cl)ccc3c2Cl)cc1
Protein skinhead-1
  IC50: 26.3 µM (active)
[6]
  CC50: 19.9 µM (active)
[16]
  EC50: 16.8 µM (inconclusive)
[17]
  EC50: 3.87 µM (active)
[7]
  CC50: 11.7 µM (active)
[10]
  CC50: 18.9 µM (active)
cells
  IC50: 32.9 µM (active)

## COc1cc(NCCCn2cnc(C(=O)Nc3ccc(C)c(C)c3)n2)cc(OC)c1OC
[15]
  IC50: > 80 µM (inactive)

## O=[N+]([O-])c1ccc(-c2nn(-c3ccccc3)cc2/C=N/n2c(S)nnc2-c2cccs2)cc1
X-box-binding protein 1
  Absolute IC50 (XBP1): 10 µM

## C/C(=N/NC(=S)Nc1ccccc1)c1ccc2c(c1)OCO2
Beta-galactosidase
  IC50: > 66.6 µM (inactive)

## C/C(=N\Nc1nc2ccccc2[nH]1)c1cc2ccccc2o1
[6]
  CC50: > 40 µM (active)
[10]
  CC50: > 20 µM (active)
cells
  IC50: 1.28 µM (active)

## COc1cc(/C=N/NC(=O)NC2CCCCC2)ccc1O
Large T antigen
  IC50: 7.16 µM (active)

## Cc1ccc(-c2c(C(=O)N/N=C/c3cccs3)nnn2-c2nonc2N)cc1
[15]
  IC50: > 80 µM (inactive)
